# Peptide text beside a SMILES is read from it. * marks the point of attachment. Biotin = O=C1N[C@H]2[C@H](CS[C@H]2CCCCC(=O)*)N1
# Columns and labels:
# Format in all cases: binding
# [1] = target: T1, KIAA0807(S) (PDZ Domain 1) (Homo sapiens, UniProt Q6P0Q8); experiment: G' assay and Kd titration, TABLE 12
# T1 construct: made in house; host or cells: E. coli (DH5alpha, BL21 or JM109)
# T1 sequence (Q6P0Q8 with tags, fused parts or gaps): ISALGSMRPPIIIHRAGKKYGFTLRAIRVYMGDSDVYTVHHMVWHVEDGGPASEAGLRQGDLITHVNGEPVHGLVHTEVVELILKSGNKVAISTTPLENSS
# Description: (§1) The third column labeled “Peptide Optimal Concentration” in the tables is a number reflective of the binding interaction between the PL protein and PDZ protein. […] The column labeled “Protein Optimal Concentration” refers to the protein concentration used to assay PL interaction (in ug/ml); a ‘0’ is indicative of 5 ug/ml protein concentration; any other value represents the concentration (in ug/ml) used to determine the dissociation constant for a given interaction.
# (§2) Finally, the seventh column labeled “Classification” is another measure of the level of binding. In particular, it provides an absorbance value at 450 nm which indicates the amount of PL peptide bound to the PDZ protein. The following numerical values have the following meanings: ‘1’—A450 nm 0-1; ‘2’—A450 nm 1-2; ‘3’—A450 nm 2-3; ‘4’—A450 nm 3-4; ‘5’—A450 nm of 4 more than 2× repeated; ‘0’—A450 nm 0, i.e., not found to interact. Thus, higher numbers indicate stronger interactions.
# For convenience, the assay conditions described in this section are referred to as the “G′ assay” and the “G″ assay,” with the specific conditions described in the preceding section on G assays being referred to as the “G^0 assay.” The “G′ assay” is identical to the “G^0 assay” except at step (2) the peptide concentration is 10 uM instead of 20 uM.
# [2] = target: T2, PDZ protein (GST-PDZ fusion) (Homo sapiens, UniProt O14745); experiment: G' assay (10 uM PL peptide), results of TABLE 7 and TABLE 12
# T2 construct: made in house; host or cells: E. coli (DH5alpha, BL21 or JM109)
# T2 sequence (O14745 1-358): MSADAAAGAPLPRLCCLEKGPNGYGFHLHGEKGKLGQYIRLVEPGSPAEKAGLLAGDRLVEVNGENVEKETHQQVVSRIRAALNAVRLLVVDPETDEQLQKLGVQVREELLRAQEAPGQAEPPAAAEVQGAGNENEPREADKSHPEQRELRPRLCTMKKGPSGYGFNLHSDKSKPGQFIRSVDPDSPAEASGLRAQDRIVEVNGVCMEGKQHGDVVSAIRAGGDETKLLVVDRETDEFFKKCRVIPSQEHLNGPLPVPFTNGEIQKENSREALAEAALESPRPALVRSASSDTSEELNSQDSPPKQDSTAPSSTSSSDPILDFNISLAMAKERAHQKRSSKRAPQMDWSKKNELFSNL
# How it was run: (§3)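 Biotinylated PL peptides at 10 uM (vs 20 uM in G^0 assay) bound to GST-PDZ fusions; PDZ protein at 5 ug/ml unless another concentration listed. Bound peptide read as A450 nm, classified 0–5 (0 = A450 0; 5 = A450 >4 repeated).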
# [3] = target: T3, PDZ protein (GST-PDZ fusion) (Homo sapiens, UniProt Q9BYB0); experiment: as above; conditions: PDZ SHANK3, PDZ Domain 1
# T3 construct: made in house; host or cells: E. coli (DH5alpha, BL21 or JM109)
# T3 sequence (Q9BYB0 whole entry, the tested form may be a part): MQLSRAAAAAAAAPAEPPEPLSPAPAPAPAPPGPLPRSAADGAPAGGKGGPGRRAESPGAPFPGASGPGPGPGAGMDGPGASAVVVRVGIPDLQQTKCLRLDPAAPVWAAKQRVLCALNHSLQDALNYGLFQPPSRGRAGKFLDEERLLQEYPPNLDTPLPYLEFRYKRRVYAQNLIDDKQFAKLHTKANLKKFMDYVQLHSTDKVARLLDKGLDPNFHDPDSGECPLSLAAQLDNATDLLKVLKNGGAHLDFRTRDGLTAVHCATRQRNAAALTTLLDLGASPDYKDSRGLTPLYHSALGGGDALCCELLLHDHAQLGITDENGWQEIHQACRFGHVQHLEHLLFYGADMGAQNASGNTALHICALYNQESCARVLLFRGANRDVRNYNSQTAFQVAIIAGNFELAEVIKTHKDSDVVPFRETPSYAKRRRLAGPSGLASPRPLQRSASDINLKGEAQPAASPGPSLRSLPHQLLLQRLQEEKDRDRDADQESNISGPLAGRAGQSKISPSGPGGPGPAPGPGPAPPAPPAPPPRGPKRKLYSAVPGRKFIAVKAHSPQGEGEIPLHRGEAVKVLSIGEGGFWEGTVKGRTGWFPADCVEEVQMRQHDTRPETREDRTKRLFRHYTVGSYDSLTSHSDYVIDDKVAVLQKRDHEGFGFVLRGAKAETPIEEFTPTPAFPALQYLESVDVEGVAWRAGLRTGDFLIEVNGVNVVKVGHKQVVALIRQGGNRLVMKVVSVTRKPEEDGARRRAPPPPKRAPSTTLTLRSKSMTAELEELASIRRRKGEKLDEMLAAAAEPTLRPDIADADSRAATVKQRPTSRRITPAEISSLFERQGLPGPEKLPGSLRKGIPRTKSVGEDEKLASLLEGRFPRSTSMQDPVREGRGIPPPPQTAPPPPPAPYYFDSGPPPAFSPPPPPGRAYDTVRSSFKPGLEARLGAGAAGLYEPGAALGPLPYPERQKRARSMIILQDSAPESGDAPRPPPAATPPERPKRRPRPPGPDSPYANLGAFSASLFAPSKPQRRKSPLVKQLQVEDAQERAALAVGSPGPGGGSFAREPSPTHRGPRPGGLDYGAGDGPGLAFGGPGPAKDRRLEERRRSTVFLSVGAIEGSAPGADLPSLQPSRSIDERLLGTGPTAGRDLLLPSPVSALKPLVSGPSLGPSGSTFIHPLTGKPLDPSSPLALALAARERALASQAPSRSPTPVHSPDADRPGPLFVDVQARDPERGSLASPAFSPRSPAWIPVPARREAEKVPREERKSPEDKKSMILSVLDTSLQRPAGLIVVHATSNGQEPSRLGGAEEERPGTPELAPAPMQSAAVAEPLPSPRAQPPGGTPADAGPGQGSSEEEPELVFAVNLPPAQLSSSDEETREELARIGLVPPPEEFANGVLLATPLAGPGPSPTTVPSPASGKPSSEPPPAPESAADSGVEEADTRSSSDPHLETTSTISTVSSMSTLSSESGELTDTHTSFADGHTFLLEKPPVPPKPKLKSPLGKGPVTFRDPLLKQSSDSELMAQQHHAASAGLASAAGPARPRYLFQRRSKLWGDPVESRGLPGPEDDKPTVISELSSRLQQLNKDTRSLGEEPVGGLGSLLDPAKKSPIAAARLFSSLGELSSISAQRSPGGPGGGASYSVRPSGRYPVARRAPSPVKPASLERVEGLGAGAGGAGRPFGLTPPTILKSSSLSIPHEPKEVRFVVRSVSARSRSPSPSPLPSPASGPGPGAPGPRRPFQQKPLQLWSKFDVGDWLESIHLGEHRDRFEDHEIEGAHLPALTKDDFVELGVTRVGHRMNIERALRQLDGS
# How it was run: as §3
# [4] = target: T4, PDZ protein (GST-PDZ fusion) (Homo sapiens, UniProt Q5T2W1); experiment: as above; conditions: PDZ PDZK-1, PDZ Domain 2
# T4 construct: made in house; host or cells: E. coli (DH5alpha, BL21 or JM109)
# T4 sequence (Q5T2W1 1-519): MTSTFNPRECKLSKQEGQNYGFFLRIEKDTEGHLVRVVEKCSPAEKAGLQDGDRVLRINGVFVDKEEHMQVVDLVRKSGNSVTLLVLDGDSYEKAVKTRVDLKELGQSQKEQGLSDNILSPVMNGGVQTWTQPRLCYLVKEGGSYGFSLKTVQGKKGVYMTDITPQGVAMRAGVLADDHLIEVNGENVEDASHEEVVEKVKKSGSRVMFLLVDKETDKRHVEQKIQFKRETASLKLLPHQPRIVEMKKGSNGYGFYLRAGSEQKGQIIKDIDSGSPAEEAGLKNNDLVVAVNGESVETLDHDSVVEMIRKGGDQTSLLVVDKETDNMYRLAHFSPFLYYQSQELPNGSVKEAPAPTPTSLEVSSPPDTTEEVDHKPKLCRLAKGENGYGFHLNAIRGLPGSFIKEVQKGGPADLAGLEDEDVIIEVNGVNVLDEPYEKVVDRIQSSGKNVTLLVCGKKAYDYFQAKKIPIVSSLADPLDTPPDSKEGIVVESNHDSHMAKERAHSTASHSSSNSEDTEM
# How it was run: as §3
# [5] = target: T5, PDZ protein (GST-PDZ fusion) (Homo sapiens, UniProt Q9Y566); experiment: as above; conditions: PDZ SHANK1, PDZ Domain 1
# T5 construct: made in house; host or cells: E. coli (DH5alpha, BL21 or JM109)
# T5 sequence (Q9Y566 whole entry, the tested form may be a part): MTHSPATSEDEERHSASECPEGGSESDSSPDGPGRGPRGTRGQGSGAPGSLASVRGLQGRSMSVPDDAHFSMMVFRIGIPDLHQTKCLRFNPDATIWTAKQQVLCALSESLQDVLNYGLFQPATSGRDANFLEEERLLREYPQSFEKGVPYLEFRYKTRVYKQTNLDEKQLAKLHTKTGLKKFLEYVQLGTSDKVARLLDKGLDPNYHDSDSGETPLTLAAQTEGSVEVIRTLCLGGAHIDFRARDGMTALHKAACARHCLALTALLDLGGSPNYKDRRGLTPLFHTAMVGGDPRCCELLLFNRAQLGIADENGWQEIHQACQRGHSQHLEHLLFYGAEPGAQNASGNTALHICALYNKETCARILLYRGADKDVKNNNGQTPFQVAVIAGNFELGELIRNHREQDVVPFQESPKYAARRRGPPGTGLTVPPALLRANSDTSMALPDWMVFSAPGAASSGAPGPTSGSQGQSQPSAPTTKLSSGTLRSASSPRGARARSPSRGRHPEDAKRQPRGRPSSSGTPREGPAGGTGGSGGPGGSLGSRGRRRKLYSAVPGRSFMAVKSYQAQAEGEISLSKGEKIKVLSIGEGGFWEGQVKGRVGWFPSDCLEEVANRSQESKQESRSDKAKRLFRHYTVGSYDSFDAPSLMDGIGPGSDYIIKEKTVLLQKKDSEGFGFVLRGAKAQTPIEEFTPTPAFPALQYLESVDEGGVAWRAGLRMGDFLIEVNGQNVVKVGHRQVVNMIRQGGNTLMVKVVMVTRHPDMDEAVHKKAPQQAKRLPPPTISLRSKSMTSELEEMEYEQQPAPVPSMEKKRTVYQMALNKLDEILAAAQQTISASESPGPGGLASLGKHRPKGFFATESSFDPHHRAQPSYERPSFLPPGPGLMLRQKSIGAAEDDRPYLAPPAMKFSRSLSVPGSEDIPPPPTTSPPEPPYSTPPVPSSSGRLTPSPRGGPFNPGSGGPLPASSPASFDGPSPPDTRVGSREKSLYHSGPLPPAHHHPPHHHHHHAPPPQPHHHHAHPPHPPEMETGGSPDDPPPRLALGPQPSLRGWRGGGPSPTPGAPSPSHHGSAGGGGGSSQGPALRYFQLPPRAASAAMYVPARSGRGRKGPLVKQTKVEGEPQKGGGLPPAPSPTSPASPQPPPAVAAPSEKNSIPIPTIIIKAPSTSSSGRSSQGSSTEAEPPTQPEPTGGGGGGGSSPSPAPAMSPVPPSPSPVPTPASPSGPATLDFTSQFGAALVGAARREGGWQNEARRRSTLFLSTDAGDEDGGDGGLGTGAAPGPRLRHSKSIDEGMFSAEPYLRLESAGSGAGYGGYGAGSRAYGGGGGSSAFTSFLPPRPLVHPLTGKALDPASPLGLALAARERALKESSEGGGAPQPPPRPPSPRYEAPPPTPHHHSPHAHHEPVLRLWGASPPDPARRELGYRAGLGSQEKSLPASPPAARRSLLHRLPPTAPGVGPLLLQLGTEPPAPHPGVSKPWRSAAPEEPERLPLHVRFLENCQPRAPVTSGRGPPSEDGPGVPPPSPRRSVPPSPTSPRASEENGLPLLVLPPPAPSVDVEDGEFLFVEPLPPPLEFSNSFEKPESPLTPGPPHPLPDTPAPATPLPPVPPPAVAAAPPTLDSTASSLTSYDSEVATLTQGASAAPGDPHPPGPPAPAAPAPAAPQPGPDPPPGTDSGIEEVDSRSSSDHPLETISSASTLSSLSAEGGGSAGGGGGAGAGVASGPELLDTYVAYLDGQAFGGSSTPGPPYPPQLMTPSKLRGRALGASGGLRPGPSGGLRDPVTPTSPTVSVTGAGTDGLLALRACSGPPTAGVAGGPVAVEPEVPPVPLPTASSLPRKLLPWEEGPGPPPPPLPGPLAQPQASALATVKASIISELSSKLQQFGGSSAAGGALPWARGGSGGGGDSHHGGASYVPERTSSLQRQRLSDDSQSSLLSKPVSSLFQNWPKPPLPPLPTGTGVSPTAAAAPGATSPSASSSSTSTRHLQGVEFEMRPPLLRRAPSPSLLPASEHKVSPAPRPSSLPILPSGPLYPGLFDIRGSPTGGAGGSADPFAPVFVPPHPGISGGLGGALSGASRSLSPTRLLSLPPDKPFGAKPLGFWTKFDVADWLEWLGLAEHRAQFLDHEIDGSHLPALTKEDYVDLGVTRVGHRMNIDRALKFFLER
# How it was run: as §3
# [6] = target: T6, PDZ-domain polypeptide (GST/PDZ fusion protein) (Homo sapiens, UniProt Q5T2W1); experiment: Apparent affinity (Kd) by titration of PL peptide in the G assay; conditions: Peptide Optimal Conc (Kd by titration of the PL peptide), PDZ PDZK-1, PDZ Domain 2
# T6 construct: made in house; host or cells: E. coli (DH5alpha, BL21 or JM109)
# Description: as §1
# The “A” and “G” assays described supra can be used to determine the “apparent affinity” of binding of a PDZ ligand peptide to a PDZ-domain polypeptide. Apparent affinity is determined based on the concentration of one molecule required to saturate the binding of a second molecule (e.g., the binding of a ligand to a receptor). Two particularly useful approaches for quantitation of apparent affinity of PDZ-ligand binding are provided infra.
# In cases where satisfying the above criteria proves difficult, an alternative approach (infra) can be used.
# (1) A fixed concentration of a PDZ-domain polypeptide and increasing concentrations of a labeled PL peptide (labeled with, for example, biotin or fluorescein, see TABLE 9 for representative peptide amino acid sequences) are mixed together in solution and allowed to react. In certain assays, peptide concentrations are 0.1 uM, 1 uM, 10 uM, 100 uM, 1 mM. In other assays, appropriate reaction times can range from 10 minutes to 2 days at temperatures ranging from 4° C. to 37° C. In some instances, the identical reaction can also be carried out using a non-PDZ domain-containing protein as a control (e.g., if the PDZ-domain polypeptide is fusion protein, the fusion partner can be used).
# (2) PDZ-ligand complexes can be separated from unbound labeled peptide using a variety of methods known in the art.
# (3) The PDZ-ligand complex is detected based on presence of the label on the peptide ligand using a variety of methods and detectors known to one of skill in the art. For example, if the label is fluorescein and the separation is achieved using HPSEC, an in-line fluorescence detector can be used. The binding can also be detected as described supra for the G assay.
# [7] = target: T7, PDZK1 (PDZ Domain 2, 3, 4) (Homo sapiens, UniProt Q5T2W1); experiment: G' assay, TABLE 12; conditions: A450 nm class of biotinylated PL peptide bound; 0 in conc columns = peptide 10 uM, protein 5 ug/ml
# T7 construct: When more than one PDZ domain was cloned, the DNA portion cloned represents the PDZ domains and the cDNA portion located between individual domains; made in house; host or cells: E. coli (DH5alpha, BL21 or JM109)
# Description: as §1, §2
# (§4) For convenience, the assay conditions described in this section are referred to as the “G′ assay” and the “G″ assay,” with the specific conditions described in the preceding section on G assays being referred to as the “G^0 assay.” The “G′ assay” is identical to the “G^0 assay” except at step (2) the peptide concentration is 10 uM instead of 20 uM. […] Correspondingly, it slightly increases the certainty that detected interactions are of sufficient affinity and half-life to be of biological importance and useful therapeutic targets.
# KIAA0561 (PDZ Domain 1) = target: T8, KIAA0561 (PDZ Domain 1) (Homo sapiens, UniProt O60307); experiment: G' assay, TABLE 12; conditions: A450 nm class of biotinylated PL peptide bound; 0 in conc columns = peptide 10 uM, protein 5 ug/ml
# T8 construct: made in house; host or cells: E. coli (DH5alpha, BL21 or JM109)
# T8 sequence (O60307 with tags, fused parts or gaps): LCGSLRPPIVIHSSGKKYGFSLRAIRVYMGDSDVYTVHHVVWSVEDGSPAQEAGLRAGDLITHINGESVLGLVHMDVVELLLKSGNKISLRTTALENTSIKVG
# Description: as §1, §2, §4
# KIAA807 = target: T9, KIAA807 (Homo sapiens, UniProt Q6P0Q8); experiment: G' assay, TABLE 12; conditions: A450 nm class of biotinylated PL peptide bound; 0 in conc columns = peptide 10 uM, protein 5 ug/ml
# T9 construct: made in house; host or cells: E. coli (DH5alpha, BL21 or JM109)
# T9 sequence (Q6P0Q8 1104-1192 limits assumed): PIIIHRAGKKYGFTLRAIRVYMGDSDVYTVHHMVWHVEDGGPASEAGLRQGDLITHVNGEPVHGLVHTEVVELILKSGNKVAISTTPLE
# Description: as §1, §2, §4
smiles,measurement,setting,value
CC(C)C[C@H](NC(=O)[C@H](CO)NC(=O)[C@H](CO)NC(=O)[C@H](CCCNC(=N)N)NC(=O)[C@H](CCCNC(=N)N)NC(=O)[C@H](Cc1c[nH]c2ccccc12)NC(=O)[C@H](CO)NC(=O)[C@@H]1CCCN1C(=O)CCCC[C@@H]1SC[C@@H]2NC(=O)N[C@@H]21)C(=O)N[C@@H](CO)C(=O)N[C@@H](CCC(=O)O)C(=O)N[C@@H](CO)C(=O)N[C@@H](CCC(=O)O)C(=O)N[C@@H](CC(N)=O)C(=O)N[C@@H](C)C(=O)N[C@H](C(=O)N[C@@H](CO)C(=O)N[C@@H](CC(C)C)C(=O)N[C@H](C(=O)N[C@H](C(=O)N[C@@H](Cc1ccccc1)C(=O)O)[C@@H](C)O)[C@@H](C)O)[C@@H](C)O [BLR-1] (Biotin-PSWRRSSLSESENATSLTTF-OH; C-terminus assumed),Kd,[1],1 µM
same,Classification,"[1]; A450 nm class of biotinylated PL peptide bound, 0 in conc columns = peptide 10 uM, protein 5 ug/ml",2 (A450 nm 1-2)
same,Classification,"[2]; PDZ EBP50, PDZ Domain 1",3 (A450 nm 2-3)
same,Classification,"[2]; PDZ EBP50, PDZ Domain 2",3 (A450 nm 2-3)
same,Classification,[3],3 (A450 nm 2-3)
same,Classification,[4],1 (A450 nm 0-1)
same,Classification,[5],3 (A450 nm 2-3)
same,Kd,[6],2 µM
same,Classification,[7],1 (A450 nm 0-1)
same,Classification,KIAA0561 (PDZ Domain 1),1 (A450 nm 0-1)
same,Classification,KIAA807,2 (A450 nm 1-2)

# Reference: patent publication US20050282743A1, “Molecular interactions in cells” (Arbor Vita Corporation, priority 2001, published 2005)
